Assay results from US11078161B2, “Rock-inhibiting compound and uses thereof” (HITGEN INC., priority 2017, dated 2021).

Experiments:
ROCK2 = ROCK2 (Homo sapiens, UniProt O75116); assay: Measurement of inhibitory activity against ROCK2 (ADP-Glo, S6K substrate); format: biochemical; conditions: read-out: ROCK2 (IC50 class)
Text: ROCK2 was capable of phosphorylating a substrate of polypeptide S6K (KRRRLASLR) by converting ATP to ADP. An ADP-Glo™ reagent was adopted to terminate this reaction and consume the remaining ATP. Moreover, a kinase detection reagent was introduced to ensure that ATP was further converted into a luminescent signal by an Ultra-Glo™ luciferase while convening ADP into ATP, allowing the kinase activity to be positively correlated with the intensity of the luminescent signal.
The inhibitory activity against ROCK2 was determined as follows.
(1) A detection buffer containing 40 mM Tris (pH 7.5), 20 mM MgCl2, 0.1% BSA(w/v) and 50 μM DTT was prepared.
(2) 12 μL of 2.5×0.1 μg/mL ROCK2 solution was added to a 96-well PCR plate.
(3) The 96-well PCR plate was added with 6 μL of a 6× compound solution and pre-incubated at 25° C. for 10 min.
(4) Then the 96-well PCR plate was further added with 12 μL of a mixed solution of a 2.5×37.5 μg/mL S6K substrate solution and a 12.5 μM ATP solution, and incubated at 30° C. for 60 min.
(5) 25 μL of the reaction mixture was transferred to a new 96-well PCR plate, mixed with 25 μL of the ADP-Glo™ reagent uniformly and incubated at 25° C. for 40 min to terminate the reaction.
(6) After the reaction was terminated, 40 μL of the reaction mixture was transferred to another 96-well PCR plate, mixed with 40 μL of the kinase detection reagent uniformly and incubated at 25° C. for 40 min.
(7) The luminescence signal was recorded for the calculation of the inhibitory rate.
The inhibitory activity of the above-prepared compounds against the ROCK2 was measured according to the above process, and the results were shown in Table 1, in which the compounds were ranked according to the IC50 value. Specifically, “+” indicated an IC50 value greater than 500 nM; “++” indicated an IC50 value less than 500 nM and greater than 100 nM; and “+++” indicated an IC50 value less than 100 nM.

[1] = test system: phosphorylation of the myosin light chain (T18/S19) of smooth muscle cells A7r5; assay: Detection of myosin light chain phosphorylation by In-Cell Western Blotting; format: cell-based; conditions: rat smooth muscle cells A7r5, 1 h incubation in serum-free medium; read-out: A7r5 (IC50 class, inhibition of myosin light chain phosphorylation)
Procedure: ROCK2 was capable of altering the cytoskeleton by phosphorylating two amino acid sites (T18 and S19) on the myosin light chain. Smooth muscle cells A7r5 of rats were selected, inoculated into a 96 well black plate with a transparent bottom and cultured with DMEM containing 10% FBS. After cultured overnight, the cells were treated by serum starvation for 4 h and then incubated with respective compounds in serum-free medium for 1 h. The phosphorylation level of the myosin light chain was detected by In-Cell Western Blotting using a phspho-MLC-T18/S19-specific antibody and a secondary detection antibody. The untreated cells were used as positive control; the cells without undergoing primary antibody incubation were used as negative control; and total intracellular protein was used as an internal reference. The results were fitted by a non-linear regression curve with varying slope using GraphPad Prism 5.01 software to determine an IC50 value.
The detection of the inhibitory activity of the above-prepared compounds against the phosphorylation of the myosin light chain of smooth muscle cells A7r5 was performed according to the above process. The results were shown in Table 2, where the compounds were ranked according to the IC50 value.

[2] = test system: New Zealand rabbits with normal intraocular pressure; assay: Animal experiment, normal intraocular pressure model; format: in vivo; conditions: normal IOP rabbits, 50 μL to the right eye, IOP at 0-10 h
Procedure: 24 male New Zealand rabbits were averagely divided into 4 groups, and were randomly assigned to respective groups using a computer randomized algorithm involving weight. From […] before the experiment, all rabbits were required to be trained to adapt to the operation of intraocular pressure (IOP) measurement, and the training was performed 3 times a day with an interval of about 3 h. The intraocular pressure was measured using a TonoVet tonometer, specifically, individual animals were fixed and the eye to be tested was placed at a position perpendicular to the TonoVet tonometer. The IOP should be measured at least 3 times in each operation until the reading became stable. The results from the last three stable measurements (±3 mmHg) were recorded and averaged to be used as the final IOP value. Respective compounds were weighed and dissolved with normal saline to the desired concentration. At the beginning of the experiment, individual compounds of the invention, reference compound K115 or negative control solvent (50 μL) were administered to the right eye of each animal, and the left eye of each animal was treated by normal saline. The IOP was measured at time points Pre (0 h), 1 h, 2 h, 4 h, 6 h, 8 h and 10 h after the administration of drugs, and the data obtained at respective time points was analyzed by student-t test. The curve of IOP over time was analyzed using the ANOVA test, where a P value of less than 0.05 will be considered to be of statistical significance and the data was expressed by mean±standard deviation.

[3] = test system: New Zealand rabbits with high intraocular pressure; assay: Animal experiment, high intraocular pressure monocular model; format: in vivo; conditions: high IOP rabbits, 50 μL per eye three times a day (0, 3rd, 6th h), IOP at 0-8 h
Procedure: 10 male New Zealand rabbits were averagely divided into 2 groups and were randomly assigned to respective groups using a computer randomized algorithm involving weight. From 3 days to 1 day before the experiment, all rabbits were required to be trained to adapt to the operation of intraocular pressure (IOP) measurement, and the training was performed 3 times a day with an interval of about 3 h. The intraocular pressure was measured using a TonoVet tonometer, specifically, individual animals were fixed and the eye to be tested was placed at a position perpendicular to the TonoVet tonometer. The IOP should be measured at least 3 times in each operation until the reading became stable. The results from the last three stable measurements (±3 mmHg) were recorded and averaged to be used as the final IOP value. Respective compounds were weighed and dissolved with normal saline to the desired concentration. Before the induction of high intraocular pressure, the intraocular pressure values of both eyes were measured and used as the basic intraocular pressure value. […] The IOP was measured respectively 0, 1, 2, 3, 4, 6 and 8 h after the injection. The results obtained at individual time points were analyzed by student-t test, and the variation curve of IOP over time was analyzed using ANOVA test. […]

hypertensive model rats = conditions: cited from earlier work

Chain of ROCK2 (O75116 whole entry): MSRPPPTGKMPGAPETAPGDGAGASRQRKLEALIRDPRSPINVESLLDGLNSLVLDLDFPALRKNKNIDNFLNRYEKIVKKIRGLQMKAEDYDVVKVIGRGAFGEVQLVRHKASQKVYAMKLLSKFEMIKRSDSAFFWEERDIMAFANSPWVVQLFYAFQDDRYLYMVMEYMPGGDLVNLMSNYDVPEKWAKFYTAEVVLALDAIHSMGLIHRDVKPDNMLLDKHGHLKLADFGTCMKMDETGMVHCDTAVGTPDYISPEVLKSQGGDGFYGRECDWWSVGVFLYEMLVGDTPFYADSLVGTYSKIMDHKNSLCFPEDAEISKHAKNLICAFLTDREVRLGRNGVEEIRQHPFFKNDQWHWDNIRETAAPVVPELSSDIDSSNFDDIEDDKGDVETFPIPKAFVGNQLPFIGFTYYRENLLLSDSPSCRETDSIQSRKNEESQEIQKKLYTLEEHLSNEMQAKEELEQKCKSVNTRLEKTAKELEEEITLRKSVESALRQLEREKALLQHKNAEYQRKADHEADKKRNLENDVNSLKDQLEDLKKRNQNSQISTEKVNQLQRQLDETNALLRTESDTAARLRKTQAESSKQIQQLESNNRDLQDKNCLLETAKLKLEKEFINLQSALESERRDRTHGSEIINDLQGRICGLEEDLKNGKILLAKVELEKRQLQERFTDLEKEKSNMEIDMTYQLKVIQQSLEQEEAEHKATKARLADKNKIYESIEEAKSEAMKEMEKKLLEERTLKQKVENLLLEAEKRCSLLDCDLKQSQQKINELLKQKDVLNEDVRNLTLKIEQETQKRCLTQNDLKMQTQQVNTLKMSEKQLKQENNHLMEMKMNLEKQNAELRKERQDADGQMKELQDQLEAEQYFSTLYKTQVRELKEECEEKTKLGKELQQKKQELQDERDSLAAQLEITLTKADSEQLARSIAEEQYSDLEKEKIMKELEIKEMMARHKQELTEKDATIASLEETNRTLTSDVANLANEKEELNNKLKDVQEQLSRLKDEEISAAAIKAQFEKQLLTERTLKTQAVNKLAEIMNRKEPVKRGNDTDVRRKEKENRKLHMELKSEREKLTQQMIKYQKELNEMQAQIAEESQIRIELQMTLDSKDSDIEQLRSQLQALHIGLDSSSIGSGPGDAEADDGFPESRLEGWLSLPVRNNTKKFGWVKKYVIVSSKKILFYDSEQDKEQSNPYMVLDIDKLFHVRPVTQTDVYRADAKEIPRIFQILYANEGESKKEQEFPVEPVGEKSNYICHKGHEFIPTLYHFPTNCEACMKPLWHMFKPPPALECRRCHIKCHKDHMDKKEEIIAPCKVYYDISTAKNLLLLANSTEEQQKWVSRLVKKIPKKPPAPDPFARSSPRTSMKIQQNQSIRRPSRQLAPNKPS

Row | SMILES | IC50 (ROCK2) [nM] | IC50 [1] [nM] | further results
1 | Cc1ccc(C(=O)OCc2ccc([C@@H](CN)NC(=O)c3ccc4cnccc4c3)cc2)c(C)c1 [Compound 4, (S)-4-(2-amino-1-(isoquinoline-6-formamido)ethyl)benzyl 2,4-dimethylbenzoate] | 100 to 500 | > 1000 | –
2 | CCOC(=O)c1cc(-c2cccc(C(CCN)NC(=O)c3ccc4cnccc4c3)c2)cs1 (stereo not shown) [Compound 7, ethyl 4-(3-(3-amino-1-(isoquinoline-6-formamide)propyl)phenyl)thiophene-2-carboxylate] | < 100 | 250 to 1000 | –
3 | O=C(NC(c1ccccc1)C1CNC1)c1ccc2cnccc2c1 (stereo not shown) [Compound 9, N-(azetidin-3-yl-benzyl)isoquinoline-6-carboxamide] | < 100 | 250 to 1000 | –
4 | CN1CC(C(NC(=O)c2ccc3cnccc3c2)c2ccccc2)C1 (stereo not shown) [Compound 10, N-((1-methylazetidin-3-yl)-benzyl)isoquinoline-6-carboxamide] | < 100 | 250 to 1000 | –
5 | O=C(N[C@H](c1ccccc1)[C@@H]1CCNC1)c1ccc2cnccc2c1 [Compound 11a, N—((S)-phenyl-((R)-pyrrolidin-3-yl)methyl)isoquinoline-6-carboxamide] | < 100 | 250 to 1000 | effect on alleviating high intraocular pressure [3]: a good effect on alleviating high intraocular pressure; acting time compared to K115 [2]: a longer acting time; intraocular pressure-reducing activity compared to K115 [2]: a similar intraocular pressure-reducing activity
6 | O=C(N[C@@H](c1ccccc1)[C@@H]1CCNC1)c1ccc2cnccc2c1 [Compound 11b, N—((R)-phenyl-((R)-pyrrolidin-3-yl)methyl)isoquinoline-6-carboxamide] | < 100 | – | –
7 | CN1CC[C@@H]([C@@H](NC(=O)c2ccc3cnccc3c2)c2ccccc2)C1 [Compound 12, N—((R)—((R)-1-methylpyrrolidin-3-yl)(phenyl)methyl)isoquinoline-6-carboxamide] | < 100 | – | –
8 | CN1CC[C@@H]([C@H](NC(=O)c2ccc3cnccc3c2)c2ccccc2)C1 [Compound 13, N—((S)—((R)-1-methylpyrrolidin-3-yl)(phenyl)methyl)isoquinoline-6-carboxamide] | < 100 | 250 to 1000 | –
9 | O=C(N[C@H](c1ccccc1)[C@H]1CCNC1)c1ccc2cnccc2c1 [Compound 14a, N—((S)-phenyl-((S)-pyrrolidin-3-yl)methyl)isoquinoline-6-carboxamide] | 100 to 500 | – | –
10 | O=C(N[C@@H](c1ccccc1)[C@H]1CCNC1)c1ccc2cnccc2c1 [Compound 14b, N—((R)-phenyl-((S)-pyrrolidin-3-yl)methyl)isoquinoline-6-carboxamide] | < 100 | – | –
11 | C[C@@H](N)[C@H]1CC[C@H](C(=O)Nc2ccncc2)CC1 [Compound Y-27632] | – | – | blood pressure of control rats (hypertensive model rats; control rats): fails to show significant effects on the blood pressure; blood pressure of hypertensive model rats (hypertensive model rats; spontaneous, renal and deoxycorticosterone acetate-induced hypertension): significantly lowering the blood pressure

Now from value to compound, other results behind:

Row | IC50 (ROCK2) [nM] | IC50 [1] [nM] | SMILES | further results
12 | < 100 | 250 to 1000 | NC[C@@H](NC(=O)c1ccc2cnccc2c1)c1ccccc1 [Compound 1, N—((S)-2-amino-1-phenyl-ethyl)isoquinoline-6-carboxamide] | –
13 | < 100 | < 250 | NC[C@@H](NC(=O)c1ccc2cnccc2c1)c1cccc(Br)c1 [Compound 2, (S)—N-(2-amino-1-(3-bromophenyl)ethyl)isoquinoline-6-carboxamide] | –
14 | 100 to 500 | – | NC[C@@H](NC(=O)c1ccc2cnccc2c1)c1ccc(CO)cc1 [Compound 3, (S)—N-(2-amino-1-(4-(hydroxymethyl)phenyl)ethyl)isoquinoline-6-formamide] | –
15 | < 100 | 250 to 1000 | CN(C)C[C@@H](NC(=O)c1ccc2cnccc2c1)c1ccccc1 [Compound 5, N-((1S)-2-(dimethylamino)-1-phenyl-ethyl)isoquinoline-6-formamide] | acting time compared to K115 [2]: a longer acting time; intraocular pressure-reducing activity compared to K115 [2]: a similar intraocular pressure-reducing activity
16 | < 100 | < 250 | NCCC(NC(=O)c1ccc2cnccc2c1)c1cccc(Cl)c1 (stereo not shown) [Compound 6, N-(3-amino-1-(3-chlorophenyl)propyl)isoquinoline-6-carboxamide] | –
17 | < 100 | > 1000 | CN(C)CCC(NC(=O)c1ccc2cnccc2c1)c1ccccc1 (stereo not shown) [Compound 8, N-(3-(dimethylamino)-1-phenyl-propyl)isoquinoline-6-formamide] | –
18 | < 100 | 250 to 1000 | COc1cccc([C@@H](CN(C)C)NC(=O)c2ccc3cnccc3c2)c1 [Compound 15, N—((S)-2-(dimethylamino)-1-(3-methoxyphenyl)ethyl)isoquinoline-6-carboxamide] | –
19 | – | 250 to 1000 | CN(C)C[C@@H](NC(=O)c1ccc2cnccc2c1)c1cccc(Cl)c1 [Compound 16, N—((S)-2-(dimethylamino)-1-(3-chlorophenyl)ethyl)isoquinoline-6-carboxamide] | –
